From patent publication US5274121A, “N-methyl-N-[4-(1-pyrrolidinyl)-2-butynyl]amide congeners as muscarinic agents” (priority 1992, dated 1993)
Entries after “also recorded” stand apart in the source; their conditions may differ. Where two headings read alike, the source gives them in different places.

Experiments:
[1] = target: T1, muscarinic receptors, SK-N-SH cell membranes (m4 AChR) (Homo sapiens, UniProt P20309); test: Inhibition of [3H]-NMS binding to membranes from SK-N-SH cells; conditions: SK-N-SH cells; conc. of compounds = 100 μM
T1 construct: membranes from SK-N-SH cells; endogenous in cells; host or cells: SK-N-SH human neuroblastoma cells (crude membrane fraction)
Text: (§1) Compounds of the present invention were screened for their biological activity. Assay systems using SK-N-SH human neuroblastoma cells which express only m4 -AChRs coupled to PI turnover, and NG108-15 neuroblastoma x glioma cells which express only m3 AChRs coupled to adenylate cyclase inhibition were used.
(§2) Compounds of the present invention were also screened for their relative binding affinities. Assay systems which measured the inhibition of ^3 H-N-methylscopolamine (^3 H-NMS) binding to membranes from NG108-15 cells and membranes from SK-N-SH cells were used.
(§3) Inhibition of [^3 H]-NMS binding
(§4) Cells were grown to confluence, harvested, and a crude membrane fraction was obtained. […] The total volume was 1 mL. The incubation was terminated by rapid filtration over GF/B filters using a Brandel cell harvester. The filters were washed three times with ice-cold 0.9% NaCl, equilibrated in scintillation counting fluid and counted on a Beckman LS 5801 liquid scintillation counter at 47% efficiency. Non-specific binding was determined by coincubation with 1 μM atropine, and amounted to less than 15% of total counts. It was routinely subtracted from the total counts.

[2] = system: NG108-15 neuroblastoma x glioma cells (m3 AChR); test: Inhibition of PGE1-stimulated cAMP levels in NG108-15 cells; format: cell-based; conditions: for inhibition at 100 µM: relative to control with no compounds added, conc. of compounds = 100 μM, read-out: cAMP Inhib; for agonist activity, in words: Table I assays
Protocol: (§5) Compounds of the present invention were tested for their binding affinities and activation of second messengers in selective muscarinic cholinergic receptor systems. It is believed that m1 -, m4 -, and m5 AChRs couple exclusively to PI turnover, whereas m2 - and m3 -AChRs couple only to adenylate cyclase inhibition.
as §1
Inhibition of PGE1 -stimulated cAMP levels in NG108-15 cells
Cells were plated in 24-well plates and were grown to 90% confluence. The growth media was then replaced with a solution of 1 mM IBMX in DMEM-Hepes (0.5 mL per well) and the cells were incubated for 10 min at 37° C. Agonists were then added at a final concentration of 100 μM, along with PGE1 (final conc, 5 μM), and the cells were incubated for a further 15 min at 37° C. The reaction Was terminated by aspirating the solution and adding 0.5 mL of 0.1N HCl. In order to extract the cAMP from the cells, they were incubated in 0.1 N HCl for 30 min at room temperature. An aliquot (35 50 μL) was removed, lyophilized, and assayed for cAMP by radioimmunoassay.

[3] = target: T2, muscarinic receptors, NG108-15 cell membranes (m3 AChR) (Mus musculus, UniProt P32211); test: Inhibition of [3H]-NMS binding to membranes from NG108-15 cells; conditions: for inhibition at 100 µM: NG108-15 cells, conc. of compounds = 100 μM; for binding to muscarinic receptors, in words: 3H-NMS binding, NG108-15 and SK-N-SH membranes
T2 construct: membranes from NG108-15 cells; endogenous in cells; host or cells: NG108-15 neuroblastoma x glioma hybrid cells (crude membrane fraction)
T2 sequence (P32211 1-479): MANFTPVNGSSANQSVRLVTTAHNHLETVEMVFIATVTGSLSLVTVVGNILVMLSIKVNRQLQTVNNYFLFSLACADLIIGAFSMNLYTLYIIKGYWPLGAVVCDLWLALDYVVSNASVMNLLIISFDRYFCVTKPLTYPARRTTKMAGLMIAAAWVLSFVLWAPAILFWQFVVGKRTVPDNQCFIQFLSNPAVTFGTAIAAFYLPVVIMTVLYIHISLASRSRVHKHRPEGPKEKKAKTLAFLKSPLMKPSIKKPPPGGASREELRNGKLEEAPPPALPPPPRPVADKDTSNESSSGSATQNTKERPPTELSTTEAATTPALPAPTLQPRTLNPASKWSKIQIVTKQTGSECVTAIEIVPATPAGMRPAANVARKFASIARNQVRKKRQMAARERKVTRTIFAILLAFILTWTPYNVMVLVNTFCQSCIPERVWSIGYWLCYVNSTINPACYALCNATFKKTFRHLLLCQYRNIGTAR
Text: as §1, §2, §3, §4

[4] = system: SK-N-SH human neuroblastoma cells (m4 AChR); test: Stimulation of PI turnover in SK-N-SH cells; format: cell-based; conditions: SK-N-SH cells; for Emax at 100 µM: Homo sapiens, 0.5 h, percent relative to the activity of OXO-M, conc. of compounds = 100 μM, read-out: Pi turnover
Protocol: as §5, §1
Stimulation of PI turnover in SK-N-SH cells
Cells were plated into 24-well plates at 100,000 cells per well. After 24 hours, they were labeled overnight with 2 μCi per well of [^3 H]-myo-inositol (American Radiolabeled Chemicals, Inc., St. Louis, Mo.; 15 Ci/mM; 2 μL of stock per mL of media). The cells were then rinsed twice with 10 mM LiCl in DMEM-Hepes and the cells were incubated in this solution for 5 min at 37° C. The indicated compound was then added at a final concentration of 100 μM and the cells were incubated for another 30 min at 37° C. The reaction was stopped by aspirating the solution and adding cold methanol to the cells. After transferring the cells to a glass tube and sonicating briefly, chloroform and water were added to make a two-phase system. The upper aqueous phase was applied to 0.6 mL anion exchange columns (AG X8, Bio-Rad) and the columns were washed and total inositol phosphates were eluted with 1M ammonium formate and 0.1M formic acid.

T1 sequence (P20309 whole entry): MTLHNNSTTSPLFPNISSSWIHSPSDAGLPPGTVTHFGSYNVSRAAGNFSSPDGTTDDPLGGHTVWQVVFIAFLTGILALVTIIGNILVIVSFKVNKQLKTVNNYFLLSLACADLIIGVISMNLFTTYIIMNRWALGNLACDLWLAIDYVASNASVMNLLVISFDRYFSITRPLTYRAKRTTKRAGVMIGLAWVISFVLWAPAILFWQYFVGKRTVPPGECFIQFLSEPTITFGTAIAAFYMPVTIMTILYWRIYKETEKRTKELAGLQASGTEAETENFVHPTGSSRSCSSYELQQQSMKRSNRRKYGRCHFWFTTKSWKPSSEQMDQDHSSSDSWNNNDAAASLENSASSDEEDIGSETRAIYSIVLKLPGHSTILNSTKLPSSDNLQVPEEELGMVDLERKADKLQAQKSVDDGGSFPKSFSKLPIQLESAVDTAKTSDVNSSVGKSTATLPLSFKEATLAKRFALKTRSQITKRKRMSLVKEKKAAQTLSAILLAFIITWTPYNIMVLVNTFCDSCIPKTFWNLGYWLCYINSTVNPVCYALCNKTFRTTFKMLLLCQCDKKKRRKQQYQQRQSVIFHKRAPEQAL

Work on `CN(CC#CCN1CCCC1)C(=O)CCCNC(=O)CNC(=O)OC(C)(C)C` [Compound 052, N-Methyl-N-[4-(1-pyrrolidinyl)-2-butynyl]-5-(N-[2-(N-Boc-amino)ethanoyl]amino)butanamide] yielded an inhibition at 100 µM [1] of 40%, an inhibition at 100 µM ([2]; NG108-15 cells) of 0% and an inhibition at 100 µM [3] of 5%.
Work on `CN(CC#CCN1CCCC1)C(=O)CCCCNC(=O)OC(C)(C)C` [Compound 035] yielded an inhibition at 100 µM [1] of 32.1 ± 2.1%, an inhibition at 100 µM ([2]; NG108-15 cells) of 0.5 ± 0.3% and an Emax at 100 µM [4] of 1 ± 1%. It also gave an inhibition at 100 µM [3] of 26.7 ± 1.6%.
In the case of `CC(=O)NCCC(=O)N(C)CC#CCN1CCCC1` [Compound 018], the inhibition at 100 µM [1] is reported as 67.4 ± 3.3%, the inhibition at 100 µM ([2]; NG108-15, NG108-15 cells) is reported as 10.2 ± 4.8% and the inhibition at 100 µM [3] is reported as 67.7 ± 3.6%.
Molecule `CN(CC#CCN1CCCC1)C(=O)CCCNC(=O)c1ccccc1` [Compound 055] has an inhibition at 100 µM [1] of 27%, an inhibition at 100 µM ([2]; NG108-15 cells) of 0% and an inhibition at 100 µM [3] of 16%.
For `CN(CC#CCN1CCCC1)C(=O)CCCCCCNC(=O)OC(C)(C)C` [Compound 045], the inhibition at 100 µM [1] was 81.4 ± 2.4%, the inhibition at 100 µM ([2]; NG108-15 cells) was 0% and the “agonist activity, in words” value [2] was “inactive as agonists”. The “binding to muscarinic receptors, in words” value [3] was “most active” and the inhibition at 100 µM [3] was 77.9 ± 2.4%.
For `CN(CC#CCN1CCCC1)C(=O)CCCCCNC(=O)CCNC(=O)OC(C)(C)C` [Compound 051], the inhibition at 100 µM [1] was 60%, the inhibition at 100 µM ([2]; NG108-15 cells) was 0% and the inhibition at 100 µM [3] was 51%.
Molecule `CC(=O)NCCCCCC(=O)N(C)CC#CCN1CCCC1` [Compound 041] has an inhibition at 100 µM [1] of 17.4 ± 3.6%, an inhibition at 100 µM ([2]; NG108-15 cells) of 3 ± 1.7% and an Emax at 100 µM [4] of 1 ± 1%. It also gave an inhibition at 100 µM [3] of 22.7 ± 2.8%.
`CN(CC#CCN1CCCC1)C(=O)CCCCN` [Compound 036] was tested, and the inhibition at 100 µM [1] was 34.4 ± 0.3%, the inhibition at 100 µM ([2]; NG108-15, NG108-15 cells) was 15.8 ± 2.7% and the “agonist activity in NG108-15 cells (cAMP inhibition), in words” value ([2]; NG108-15 cells) was “substantial activity”. It also gave an inhibition at 100 µM [3] of 22.4 ± 3.2%.
With `CN(CC#CCN1CCCC1)C(=O)CCN` [Compound 017] the inhibition at 100 µM [1] was 18.1 ± 2.8%, the “agonist selectivity, in words” value ([2]; NG108-15 (cAMP) versus SK-N-SH (PI turnover)) was “selective agonists” and the inhibition at 100 µM ([2]; NG108-15, NG108-15 cells) was 20.8 ± 1.7%. The “agonist activity in NG108-15 cells (cAMP inhibition), in words” value ([2]; NG108-15 cells) was “most active as agonists in NG108-15 cells; also recorded: approximately half as active as the full agonist oxotremorine-M”, the “stimulation of PI turnover, in words” value [4] was “inactive in SK-N-SH cells” and the inhibition at 100 µM [3] was 15.1 ± 3.5%.
In the case of `CN(CC#CCN1CCCC1)C(=O)CCCCCNC(=O)c1ccccc1` [Compound 054], the inhibition at 100 µM [1] is reported as 49%, the inhibition at 100 µM ([2]; NG108-15 cells) is reported as 0% and the inhibition at 100 µM [3] is reported as 35%.
In the case of `CN(CC#CCN1CCCC1)C(=O)CCCCCN` [Compound 039], the inhibition at 100 µM [1] is reported as 55.6 ± 1.9%, the inhibition at 100 µM ([2]; NG108-15, NG108-15 cells) is reported as 14.3 ± 1% and the “agonist activity in NG108-15 cells (cAMP inhibition), in words” value ([2]; NG108-15 cells) is reported as “substantial activity”. It also gave an inhibition at 100 µM [3] of 37.9 ± 3.2%.
Molecule `CC(=O)NCCCCCCCC(=O)N(C)CC#CCN1CCCC1` [Compound 048] has an inhibition at 100 µM [1] of 59.1 ± 0.8%, an inhibition at 100 µM ([2]; NG108-15 cells) of 0% and an inhibition at 100 µM [3] of 50.4 ± 4.9%.
For `CN(CC#CCN1CCCC1)C(=O)CCCCCCN` [Compound 047], the inhibition at 100 µM [1] was 81.9 ± 1%, the inhibition at 100 µM ([2]; NG108-15, NG108-15 cells) was 3 ± 1.2% and the “agonist activity, in words” value [2] was “inactive as agonists”. For the same molecule, the “binding to muscarinic receptors, in words” value [3] was “most active” and the inhibition at 100 µM [3] was 72.1 ± 2.7%.
For `CN(CC#CCN1CCCC1)C(=O)CCCCCNC(=O)CNC(=O)OC(C)(C)C` [Compound 050], the inhibition at 100 µM [1] was 50%, the inhibition at 100 µM ([2]; NG108-15 cells) was 0% and the inhibition at 100 µM [3] was 51%.
